Test results taken from patent US11590116B2 (THERAVANCE BIOPHARMA R&D IP, LLC, priority 2019, dated 2023).

Assays:
[1] = tested on: TGF-β-stimulated SMAD3 phosphorylation in BEAS-2B cells; assay: Cellular ALK5 potency assay, inhibition of TGF-β stimulated pSMAD3 formation in BEAS-2B cells; format: cell-based; settings: Homo sapiens; inhibition of TGF-β stimulated pSMAD3 formation, BEAS-2B cells; read-out: BEAS2B pIC50 (converted)
In short: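 Potency is reported as pIC50, derived from concentration-dependent reduction of pSMAD3 AlphaLISA signal against TGF-β-stimulated cells without compound. BEAS-2B cells received compound for 1 h before a 30-min stimulation with 10 ng/mL TGF-β.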

[2] = target: T1, recombinant human ALK5 (TGF-βR1) protein (Homo sapiens, UniProt P36897); assay: Biochemical ALK5 (TGF-βR1) assay to measure pKi (LANCE Ultra ULight kinase assay); settings: apparent pKi from pIC50 by Cheng-Prusoff, read-out: ALK5 pKi (converted)
T1 construct: purchased Life Technologies PR9075A
T1 sequence (P36897 34-503): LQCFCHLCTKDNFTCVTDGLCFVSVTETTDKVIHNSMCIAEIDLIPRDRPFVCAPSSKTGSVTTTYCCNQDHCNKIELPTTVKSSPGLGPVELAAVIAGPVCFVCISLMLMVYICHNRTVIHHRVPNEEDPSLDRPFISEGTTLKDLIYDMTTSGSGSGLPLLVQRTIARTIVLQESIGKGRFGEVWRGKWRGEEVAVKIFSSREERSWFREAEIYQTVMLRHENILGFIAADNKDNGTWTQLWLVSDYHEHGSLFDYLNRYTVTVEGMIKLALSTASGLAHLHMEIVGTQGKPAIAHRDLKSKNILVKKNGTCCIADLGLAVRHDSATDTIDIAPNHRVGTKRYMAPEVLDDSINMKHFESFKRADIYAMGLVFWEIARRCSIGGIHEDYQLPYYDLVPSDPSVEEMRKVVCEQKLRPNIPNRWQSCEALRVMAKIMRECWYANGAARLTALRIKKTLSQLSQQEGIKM
In short: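 Dose range 10 μM–25 pM; enzyme + compound 60 min RT; ATP added (5× stock 125 μM, 2 mM DTT); 60 min 37 °C; stop with EDTA + Eu anti-phospho-Topo IIα Thr1342 Ab; TR-FRET ex 320/340, em 665 nm. 4-param pIC50 → pKi (Cheng-Prusoff).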

SMILES | IC50 [1] | Ki [2]
Cc1cccc(-c2n[nH]cc2-c2ccc3nccc(N4CCC(N5CCN(C)CC5)CC4)c3n2)n1 [Compound 845, 8-[4-(4-methylpiperazin-1-yl)-1-piperidyl]-2-[3-(6-methyl-2-pyridyl)-1H-pyrazol-4-yl]-1,5-naphthyridine] | 200 to 1260 nM | 0.398 to 3.16 nM
Cc1cccc(-c2n[nH]cc2-c2ccc3nccc(N4CC(N5CCOCC5)C4)c3n2)n1 [Compound 846, 4-[1-[6-[3-(6-methyl-2-pyridyl)-1H-pyrazol-4-yl]-1,5-naphthyridin-4-yl]azetidin-3-yl]morpholine] | 200 to 1260 nM | 0.398 to 3.16 nM
Cc1cccc(-c2n[nH]cc2-c2ccc3nccc(N4CCC(N5CCOCC5)CC4)c3n2)n1 [Compound 847, 4-[1-[6-[3-(6-methyl-2-pyridyl)-1H-pyrazol-4-yl]-1,5-naphthyridin-4-yl]-4-piperidyl]morpholine] | 25.1 to 158 nM | 0.0398 to 0.316 nM
Cc1cccc(-c2n[nH]cc2-c2ccc3nccc(N(C)CCCN4CCOCC4)c3n2)n1 [Compound 848, N-methyl-6-[3-(6-methyl-2-pyridyl)-1H-pyrazol-4-yl]-N-(3-morpholinopropyl)-1,5-naphthyridin-4-amine] | 200 to 1260 nM | 0.0398 to 0.316 nM
Cc1cccc(-c2n[nH]cc2-c2ccc3nccc(CN4CCC(N5CCOCC5)CC4)c3n2)n1 [Compound 849, 4-[1-[[6-[3-(6-methyl-2-pyridyl)-1H-pyrazol-4-yl]-1,5-naphthyridin-4-yl]methyl]-4-piperidyl]morpholine] | 200 to 1260 nM | 0.398 to 3.16 nM
Cc1cccc(-c2n[nH]cc2-c2ccc3nccc(CN4CC(N5CCOCC5)C4)c3n2)n1 [Compound 850, 4-[1-[[6-[3-(6-methyl-2-pyridyl)-1H-pyrazol-4-yl]-1,5-naphthyridin-4-yl]methyl]azetidin-3-yl]morpholine] | 200 to 1260 nM | 0.398 to 3.16 nM
Cc1cccc(-c2n[nH]cc2-c2ccc3nccc(Cl)c3n2)n1 [Compound 851, 8-chloro-2-[3-(6-methyl-2-pyridyl)-1H-pyrazol-4-yl]-1,5-naphthyridine] | < 20 nM | 0.0398 to 0.316 nM
Cc1cccc(-c2n[nH]cc2-c2ccc3nccc(-c4nc(CO)co4)c3n2)n1 [Compound 852, [2-[6-[3-(6-methyl-2-pyridyl)-1H-pyrazol-4-yl]-1,5-naphthyridin-4-yl]oxazol-4-yl]methanol] | 25.1 to 158 nM | 0.0398 to 0.316 nM
Cc1cccc(-c2n[nH]cc2-c2ccc3nccc(CN(C)CCCN4CCOCC4)c3n2)n1 [Compound 853, N-methyl-N-[[6-[3-(6-methyl-2-pyridyl)-1H-pyrazol-4-yl]-1,5-naphthyridin-4-yl]methyl]-3-morpholino-propan-1-amine] | 25.1 to 158 nM | 0.0398 to 0.316 nM
Cc1cccc(-c2n[nH]cc2-c2ccc3nccc(-c4cn(-c5ccccc5)nn4)c3n2)n1 [Compound 854, 2-[3-(6-methyl-2-pyridyl)-1H-pyrazol-4-yl]-8-(1-phenyltriazol-4-yl)-1,5-naphthyridine] | 25.1 to 158 nM | 0.0398 to 0.316 nM
CCOC(=O)Cc1ccnc2ccc(-c3c[nH]nc3-c3cccc(C)n3)nc12 [Compound 855, ethyl 2-[6-[3-(6-methyl-2-pyridyl)-1H-pyrazol-4-yl]-1,5-naphthyridin-4-yl]acetate] | 25.1 to 158 nM | 0.0398 to 0.316 nM
Cc1cccc(-c2n[nH]cc2-c2ccc3nccc(N4CCNCC4)c3n2)n1 [Compound 856, 2-[3-(6-methyl-2-pyridyl)-1H-pyrazol-4-yl]-8-piperazin-1-yl-1,5-naphthyridine] | 25.1 to 158 nM | 0.0398 to 0.316 nM
CC(=O)Oc1ccnc2ccc(-c3c[nH]nc3-c3cccc(C)n3)nc12 [Compound 857, [6-[3-(6-methyl-2-pyridyl)-1H-pyrazol-4-yl]-1,5-naphthyridin-4-yl]acetate] | 25.1 to 158 nM | 0.398 to 3.16 nM
CCOC(=O)c1ccnc2ccc(-c3c(-c4cccc(C)n4)n[nH]c3-c3cccc(F)c3)nc12 [Compound 858, ethyl 6-[5-(3-fluorophenyl)-3-(6-methyl-2-pyridyl)-1H-pyrazol-4-yl]-1,5-naphthyridine-4-carboxylate] | 200 to 1260 nM | 3.98 to 31.6 nM
CCOC(=O)c1c(-c2cccc(F)c2)cnc2ccc(-c3c[nH]nc3-c3cccc(C)n3)nc12 [Compound 859, ethyl 3-(3-fluorophenyl)-6-[3-(6-methyl-2-pyridyl)-1H-pyrazol-4-yl]-1,5-naphthyridine-4-carboxylate] | 200 to 1260 nM | 0.398 to 3.16 nM
COC(Cc1ccnc2ccc(-c3c[nH]nc3-c3cccc(C)n3)nc12)OC [Compound 860, 8-(2,2-dimethoxyethyl)-2-[3-(6-methyl-2-pyridyl)-1H-pyrazol-4-yl]-1,5-naphthyridine] | 25.1 to 158 nM | 0.398 to 3.16 nM
Cc1cccc(-c2n[nH]cc2-c2ccc3nccc(C4COC5(CCNC5)CN4)c3n2)n1 (stereo not drawn) [Compound 862, 8-[6-[3-(6-methyl-2-pyridyl)-1H-pyrazol-4-yl]-1,5-naphthyridin-4-yl]-6-oxa-2,9-diazaspiro[4.5]decane] | 200 to 1260 nM | 3.98 to 31.6 nM
Cc1cccc(-c2n[nH]cc2-c2ccc3nccc(C4COCC(C)N4)c3n2)n1 (stereo not drawn) [Compound 863, 3-methyl-5-[6-[3-(6-methyl-2-pyridyl)-1H-pyrazol-4-yl]-1,5-naphthyridin-4-yl]morpholine] | 200 to 1260 nM | 3.98 to 31.6 nM
COC(=O)c1ccnc2ccc(-c3c(OC)n[nH]c3-c3cccc(C)n3)nc12 [Compound 864, methyl 6-[3-methoxy-5-(6-methyl-2-pyridyl)-1H-pyrazol-4-yl]-1,5-naphthyridine-4-carboxylate] | 200 to 1260 nM | 0.398 to 3.16 nM
CNCCn1cc(-c2ccnc3ccc(-c4c[nH]nc4-c4cccc(C)n4)cc23)cn1 [Compound 865, N-methyl-2-[4-[6-[3-(6-methyl-2-pyridyl)-1H-pyrazol-4-yl]-4-quinolyl]pyrazol-1-yl]ethanamine] | 25.1 to 158 nM | 0.0398 to 0.316 nM
Cc1cccc(-c2n[nH]cc2-c2ccc3nccc(-c4cn[nH]c4)c3c2)n1 [Compound 866, 6-[3-(6-methyl-2-pyridyl)-1H-pyrazol-4-yl]-4-(1H-pyrazol-4-yl)quinoline] | 25.1 to 158 nM | < 0.0316 nM
Cc1cccc(-c2n[nH]cc2-c2ccc3nccc(N4CCNCC4)c3c2)n1 [Compound 868, 6-[3-(6-methyl-2-pyridyl)-1H-pyrazol-4-yl]-4-piperazin-1-yl-quinoline] | 25.1 to 158 nM | 0.398 to 3.16 nM
Cc1cccc(-c2[nH]ncc2-c2ccc3ncc(C(=O)OCCN4CCNCC4)cc3c2)n1 [Compound 876, 2-(piperazin-1-yl)ethyl 6-(5-(6-methylpyridin-2-yl)-1H-pyrazol-4-yl)quinoline-3-carboxylate] | < 20 nM | 0.0398 to 0.316 nM
Cc1cccc(-c2[nH]cnc2-c2ccc3ncc(C(=O)OC[C@@H]4CCCNC4)cc3c2)n1 [Compound 877, (R)-piperidin-3-ylmethyl 6-(5-(6-methylpyridin-2-yl)-1H-imidazol-4-yl)quinoline-3-carboxylate] | 25.1 to 158 nM | 0.0398 to 0.316 nM
Cc1cccc(-c2[nH]cnc2-c2ccc3ncc(C(=O)O[C@H]4CCCNC4)cc3c2)n1 [Compound 878, (S)-piperidin-3-yl 6-(5-(6-methylpyridin-2-yl)-1H-imidazol-4-yl)quinoline-3-carboxylate] | 25.1 to 158 nM | 0.0398 to 0.316 nM
Cc1cccc(-c2[nH]cnc2-c2ccc3ncc(C(=O)O[C@H]4CCCC[C@@H]4N)cc3c2)n1 [Compound 879, (1S,2S)-2-aminocyclohexyl 6-(5-(6-methylpyridin-2-yl)-1H-imidazol-4-yl)quinoline-3-carboxylate] | 25.1 to 158 nM | 3.98 to 31.6 nM
Cc1cccc(-c2[nH]cnc2-c2ccc3ncc(C(=O)O[C@@H]4CCCC[C@H]4N)cc3c2)n1 [Compound 880, (1R,2R)-2-aminocyclohexyl 6-(5-(6-methylpyridin-2-yl)-1H-imidazol-4-yl)quinoline-3-carboxylate] | 25.1 to 158 nM | 0.398 to 3.16 nM
Cc1cccc(-c2[nH]cnc2-c2ccc3ncc(C(=O)O[C@@H]4CCCC[C@@H]4N)cc3c2)n1 [Compound 881, (1R,2S)-2-aminocyclohexyl 6-(5-(6-methylpyridin-2-yl)-1H-imidazol-4-yl)quinoline-3-carboxylate] | 200 to 1260 nM | 3.98 to 31.6 nM
Cc1cccc(-c2[nH]cnc2-c2ccc3ncc(C(=O)O[C@H]4CCCC[C@H]4N)cc3c2)n1 [Compound 882, (1S,2R)-2-aminocyclohexyl 6-(5-(6-methylpyridin-2-yl)-1H-imidazol-4-yl)quinoline-3-carboxylate] | 25.1 to 158 nM | 3.98 to 31.6 nM
Cc1cccc(-c2[nH]cnc2-c2ccc3ncc(C(=O)OC[C@@H]4CCCCN4)cc3c2)n1 [Compound 883, (S)-piperidin-2-ylmethyl 6-(5-(6-methylpyridin-2-yl)-1H-imidazol-4-yl)quinoline-3-carboxylate] | 25.1 to 158 nM | 0.398 to 3.16 nM
